This note sets out measurements from US8580962B2, “Spiroheterocyclic compounds as mGlu5 antagonists” (Recordati Ireland Ltd., priority 2010, dated 2013).

For experiment [1], the system named is conscious rats. The experiment in a line: Effect on cystometry in conscious rats (bladder volume capacity). It is filed as in vivo, rat. Particulars: for MED (Minimal Effective Dose that induces statistically significant increase of bladder volume capacity): oral administration; for increase of bladder volume capacity: orally. As to the method:
Male Sprague-Dawley rats [Crl: CD® (SD) IGS BR] of 300-400 g b.w. supplied by Charles River Italia were used. The animals were housed with free access to food and water and maintained on a forced 12-hour-light/12-hour-dark cycle at 22-24° C. of temperature, except during the experiment. To quantify urodynamic parameters in conscious rats, cystometrographic studies were performed according to the procedure previously reported (Guarneri et al., Pharmacol. Res. 24: 175, 1991).
Briefly, the rats were anaesthetised by intraperitoneal administration of 3 ml/kg of Equithensin solution (pentobarbital 30 mg/kg and chloral hydrate 125 mg/kg) and placed in a supine position. An approximately 10 mm long midline incision was made in the shaved and cleaned abdominal wall. The urinary bladder was gently freed from adhering tissues, emptied and then cannulated via an incision in the bladder body, using a polyethylene cannula (0.58 mm internal diameter, 0.96 mm external diameter) which was permanently sutured with silk thread. The cannula was exteriorised through a subcutaneous tunnel in the retroscapular area, where it was connected to a plastic adapter in order to avoid the risk of removal by the animal. For drug testing, the rats were utilised one day after implantation.
On the day of the experiment, the rats were placed in modified Bollman cages, i.e., restraining cages that were large enough to permit the rats to adopt a normal crouched posture, but narrow enough to prevent turning around. […] The intraluminal-pressure signal during infusion of saline into the bladder (cystometrogram) was continuously recorded on a polygraph (Rectigraph-8K San-ei with BM614/2 amplifier from Biomedica Mangoni) or stored on PC by data acquisition system (PowerLab, Chart 4 software, AD Instruments). From the cystometrogram, bladder volume capacity (BVC) was evaluated. […] Basal BVC value was evaluated as the mean of the values observed in the cystometrograms recorded in an initial period of 30-60 minutes. […] The bladder infusion restarted and changes in BVC were evaluated from the mean values obtained in the cystometrograms observed during 1, 2, and 3 hours after treatment. […]
Each experimental group was composed of 4-11 animals. All data were expressed as mean±standard error. The percent change of BVC versus the basal value, as well as Δ value (difference in ml) of BVC (BVC at time “x” minus basal value), were also evaluated for each rat/time. […]
Statistical analysis on BVC values, as well as on Δ values, was performed by S.A.S./STAT software, version 6.12. The difference between vehicle and active treatment effect was evaluated on Δ values of BVC, whereas the difference between the values at different times versus the basal values was evaluated on original BVC data.

In experiment [2] the target is T1, mGlu5 receptor (Rattus norvegicus, UniProt P31424).
T1 construct: from tissue; host or cells: rat forebrain (cortex, striatum and hippocampus) membranes, male Sprague Dawley rats
The experiment can be described thus: Radioligand binding assay at metabotropic glutamate receptor 5 in rat brain. Particulars: [3H]MPEP, rat forebrain membranes; read-out: affinity (Ki) for mGlu5 receptor. As to the method:
Radioligand Binding Assay at Metabotropic Glutamate Receptor 5 in Rat Brain.
a) Membrane preparation: male Sprague Dawley rats (200-300 g, Charles River, Italy) were killed by cervical dislocation and the forebrain (cortex, striatum and hippocampus) was homogenized (2×20 sec) in 50 vols of cold 50 mM Tris buffer pH 7.4, using a Politron homogenizer (Kinematica). Homogenates were centrifuged at 48000×g for 15 min, resuspended in 50 vols of the same buffer, incubated at 37° C. for 15 min and centrifuged and resuspended two more times. The final pellets were frozen and stored at −80° C. until use.
b) Binding assay: pellets from rat forebrain were resuspended in 100 vols of 20 mM HEPES, 2 mM MgCl2, 2 mM CaCl2, pH 7.4. The membranes were incubated in a final volume of 1 ml for 60 min at 25° C. with 4 nM [^3H]MPEP in the absence or presence of competing drugs. Non-specific binding was determined in the presence of 10 μM MPEP (Spooren W. et al., Trends Pharmacol Sci. 22, 331-337, 2001). The incubation was stopped by the addition of cold Tris buffer pH 7.4 and rapid filtration through 0.5% polyethyleneimine pretreated Filtermat 1204-401 (Wallac) filters. The filters were then washed with cold buffer and the radioactivity retained on the filters was counted by liquid scintillation spectrometry. […]

T1 sequence (P31424 21-1203): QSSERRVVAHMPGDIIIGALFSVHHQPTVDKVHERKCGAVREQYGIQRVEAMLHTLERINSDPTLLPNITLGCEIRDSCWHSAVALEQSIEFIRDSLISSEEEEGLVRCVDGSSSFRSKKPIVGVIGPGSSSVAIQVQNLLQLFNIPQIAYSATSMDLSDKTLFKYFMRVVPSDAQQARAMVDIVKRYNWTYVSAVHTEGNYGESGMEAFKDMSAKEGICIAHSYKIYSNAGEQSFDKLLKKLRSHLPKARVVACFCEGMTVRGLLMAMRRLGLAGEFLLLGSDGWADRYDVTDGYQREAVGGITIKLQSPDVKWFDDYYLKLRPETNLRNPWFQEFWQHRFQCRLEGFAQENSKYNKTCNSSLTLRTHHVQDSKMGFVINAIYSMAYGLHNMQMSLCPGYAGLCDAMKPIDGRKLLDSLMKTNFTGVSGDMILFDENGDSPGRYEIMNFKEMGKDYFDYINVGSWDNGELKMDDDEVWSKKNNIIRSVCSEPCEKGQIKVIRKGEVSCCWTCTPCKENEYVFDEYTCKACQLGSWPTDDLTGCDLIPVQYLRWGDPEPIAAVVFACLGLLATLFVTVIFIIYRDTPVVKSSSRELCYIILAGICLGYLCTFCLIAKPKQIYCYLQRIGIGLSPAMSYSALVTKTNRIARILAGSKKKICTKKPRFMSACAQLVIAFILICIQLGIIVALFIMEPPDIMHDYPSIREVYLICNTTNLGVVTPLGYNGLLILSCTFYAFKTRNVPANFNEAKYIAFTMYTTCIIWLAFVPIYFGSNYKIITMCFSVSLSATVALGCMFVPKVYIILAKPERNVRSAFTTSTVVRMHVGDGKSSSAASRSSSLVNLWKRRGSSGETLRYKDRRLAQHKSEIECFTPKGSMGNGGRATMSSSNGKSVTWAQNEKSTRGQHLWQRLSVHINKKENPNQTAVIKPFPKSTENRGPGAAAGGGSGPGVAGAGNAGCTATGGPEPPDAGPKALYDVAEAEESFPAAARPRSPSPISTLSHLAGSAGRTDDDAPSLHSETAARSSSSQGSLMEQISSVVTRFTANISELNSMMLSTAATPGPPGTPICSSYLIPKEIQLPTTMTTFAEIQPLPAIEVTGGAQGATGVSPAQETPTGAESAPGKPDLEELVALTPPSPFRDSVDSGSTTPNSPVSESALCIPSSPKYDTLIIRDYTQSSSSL

In the case of `Clc1cccc(C#CC2=NOC3(CCC4(CCCO4)CC3)C2)c1` (single isomer, unassigned) [Example 78, 3-[(3-Chlorophenyl)ethynyl]-1,9-dioxa-2-azadispiro[4.2.4.2]tetradec-2-ene], the MED (Minimal Effective Dose that induces statistically significant increase of bladder volume capacity) in experiment [1] was 3 mg/kg. By Ki is commonly meant the dissociation constant of the complex between target and ligand, obtained from inhibition or displacement. As to `Cc1ccc([N+](=O)[O-])c(N2CCC3(CC2)CC(C#Cc2cccc(Cl)c2)=NO3)n1` [Example 12, 3-[(3-Chlorophenyl)ethynyl]-8-(6-methyl-3-nitropyridin-2-yl)-1-oxa-2,8-diazaspiro[4.5]dec-2-ene], in experiment [2], the Ki worked out at 3.88 nM. As for `CON(C)C(=O)N1CCC2(CC(C#Cc3cccc(Cl)c3)=NO2)C1` (stereo not drawn) [Example 110, 7-[2-(3-Chlorophenyl)ethynyl]-N-methoxy-N-methyl-9-oxa-3,8-diazaspiro[4.4]non-7-ene-3-carboxamide], the inhibition constant Ki in experiment [2] amounted to 1.49 nM. In experiment [1], `Cc1nc(C#Cc2cccnc2)cs1` [MTEP] displayed an MED (Minimal Effective Dose that induces statistically significant increase of bladder volume capacity) of 3 mg/kg. The “increase of bladder volume capacity” value in experiment [1] (1 mg/kg) is recorded as “only a slight increase”; in experiment [1] (3 mg/kg, statistically significant from the vehicle group after 3 hours from treatment), “sustained increase”.
